The values that follow come from patent US20250163002A1, “FUSED QUINONOXIME IMIDAZOLE, ONIUM DERIVATIVES THEREOF, PREPARATION AND USE THEREOF” (SHANGHAI JIAO TONG UNIVERSITY, priority 2022, published 2025).

In test [1] the test system is A549. As to the kind of experiment: In vitro inhibition test for cancer cell proliferation (MTT), A549. The format is cell-based. To be noted: 24 h or 48 h after addition, unit inferred.
Test [2] concerns HeLa. As to the kind of experiment: In vitro inhibition test for cancer cell proliferation (MTT), HeLa. The format is cell-based. To be noted: 24 h or 48 h after addition, unit inferred.
In test [3] the test system is MCF-7. As to the kind of experiment: In vitro inhibition test for cancer cell proliferation (MTT), MCF-7. The format is cell-based. The note with it: 24 h or 48 h after addition, unit inferred.
Test [4] concerns L929. The test can be described thus: In vitro cell proliferation inhibition test (MTT), L929. The format is cell-based. The note with it: 24 h or 48 h after addition, unit inferred.
Test [5] relates to non-small cell lung cancer cell H460. As to the kind of experiment: In vitro proliferation inhibition, H460. The note with it: unit inferred. The format is cell-based. As for the experimental part: (§1) Test method: pancreatic cancer cells CFPAC-1 were cultured in a Dalbeco-improved Eagle medium with the addition of 10% FBS and 5% double-antibody. CFPAC-1 cancer cells were inoculated into a 96-well plate for incubation for 24 h; in the following day, test compounds having various concentrations of (100, 20, 10, 1, 0.1, 0.01, and 0.001 μM) and positive control agents were added per well; corresponding volume of fresh medium was added to blank control. After addition for 24 h or 48 h, cell proliferation was evaluated by chromogenic reaction of MTT formazan.
(§2) In addition, compounds (I), (II), (III), and (IV) of the present invention have good inhibition activity against the proliferation of other cancer cells, including non-small cell lung cancer cell (H460, H1299), liver tumor cell (HepG2), rectal cancer cell (HT29), leukemia cell (CCRF-CEM), prostate cancer cell (PC-3), ovarian carcinoma cell (SKOV-3), melanoma cell (A375), myeloma cell (RPMI-8226), esophageal carcinoma cell (TE-1), pancreatic cancer cell (CFPAC-1, PANC-1, SW1990, ASPC-1, and BXPC-3), bladder cancer cell (5637), and gastric cancer cell (KATO-III).

Test [6] has as its system non-small cell lung cancer cell H1299. The test can be described thus: In vitro proliferation inhibition, H1299. To be noted: unit inferred. The format is cell-based. On the procedure: as §1, §2
For test [7], the system named is liver tumor cell HepG2. As to the kind of experiment: In vitro proliferation inhibition, HepG2. The format is cell-based. The note with it: unit inferred. On the procedure: as §1, §2
Test [8] deals with rectal cancer cell HT29. As to the kind of experiment: In vitro proliferation inhibition, HT29. The format is cell-based. The note with it: unit inferred. On the procedure:
as §1, §2

Test [9] has as its system leukemia cell CCRF-CEM. The test can be described thus: In vitro proliferation inhibition, CCRF-CEM. The format is cell-based. The note with it: unit inferred. On the procedure:
as §1, §2

Test [10] concerns prostate cancer cell PC-3. As to the kind of experiment: In vitro proliferation inhibition, PC-3. The note with it: unit inferred. The format is cell-based. On the procedure:
as §1, §2

The test system of test [11] is ovarian carcinoma cell SKOV-3. The test can be described thus: In vitro proliferation inhibition, SKOV-3. The format is cell-based. To be noted: unit inferred. As for the experimental part: as §1, §2
For test [12], the system named is melanoma cell A375. The test can be described thus: In vitro proliferation inhibition, A375. The format is cell-based. To be noted: unit inferred. On the procedure:
as §1, §2

Test [13] deals with myeloma cell RPMI-8226. The test can be described thus: In vitro proliferation inhibition, RPMI-8226. The format is cell-based. The note with it: unit inferred. As for the experimental part: as §1, §2
In test [14] the test system is esophageal carcinoma cell TE-1. The test can be described thus: In vitro proliferation inhibition, TE-1. The format is cell-based. To be noted: unit inferred. As for the experimental part:
as §1, §2

In test [15] the test system is pancreatic cancer cells CFPAC-1. As to the kind of experiment: In vitro proliferation inhibition, CFPAC-1. The format is cell-based. To be noted: unit inferred. On the procedure: as §1, §2
The test system of test [16] is pancreatic cancer cell PANC-1. As to the kind of experiment: In vitro proliferation inhibition, PANC-1. The format is cell-based. To be noted: unit inferred. On the procedure:
as §1, §2

The test system of test [17] is pancreatic cancer cell SW1990. As to the kind of experiment: In vitro proliferation inhibition, SW1990. The format is cell-based. The note with it: unit inferred. As for the experimental part:
as §1, §2

Test [18] relates to pancreatic cancer cell ASPC-1. As to the kind of experiment: In vitro proliferation inhibition, ASPC-1. The format is cell-based. The note with it: unit inferred. On the procedure:
as §1, §2

Test [19] concerns pancreatic cancer cell BXPC-3. The test can be described thus: In vitro proliferation inhibition, BXPC-3. The format is cell-based. To be noted: unit inferred. As for the experimental part: as §1, §2
The subject of test [20] is bladder cancer cell 5637. As to the kind of experiment: In vitro proliferation inhibition, 5637. The format is cell-based. To be noted: unit inferred. On the procedure:
as §1, §2

In test [21] the test system is gastric cancer cell KATO-III. The test can be described thus: In vitro proliferation inhibition, KATO-III. The note with it: unit inferred. The format is cell-based. On the procedure: as §1, §2
Test [22] relates to CFPAC-1 pancreatic cancer cells. As to the kind of experiment: In vivo inhibition test of cancer cell proliferation, CFPAC-1 transplant. More on the design: species or system Balb/c naked mouse. To be noted: 7 mg/kg, once every other three days, 7 times; gross tumor volume. On the procedure:
Test method: 3×10^7 CFPAC-1 pancreatic cancer cells were transplanted to subcutaneous tissues of armpit of a Balb/c naked mouse; administration was conducted when the tumor grew to 50-100 mm^3, 100-200 mm^3, and greater than 200 mm^3; the mouse was administered once every other three days, 7 times in total, and 7 mg/kg each time. Normal saline was injected in the control group. Tumor length and diameter were measured by calipers and weight of the moue was weighed until the next day of the final administration. Gross tumor volume was calculated by the following equation:
gross tumor volume (mm^3)=½×[short diameter (mm)]^2×long diameter (mm)

As for `CCON=C1c2ccccc2C(=O)c2c1[n+](C)cn2C.[I-]` [Compound 124, (E) and (Z)-4-(ethoxylimino)-1,3-dimethyl-9-oxo-4,9-dihydro-1H-naphthol[2,3-d]imidazole-3-iodide], the IC50 in test [1] came to 0.009 µM; in [2], 11.3 µM; in [3], 3.3 µM; in test [4], 4.6 µM; in test [5], 0.34 µM; in test [6], 0.45 µM. Moreover, the IC50 in test [7] stood at 0.02 µM; in test [8], 7.9 µM; in test [9], 0.22 µM; in [10] it was 23.1 µM; in [11], 0.1 µM; in test [12], 5.65 µM. For the same compound, the IC50 in test [13] was found to be 99.2 µM; in [14], 0.08 µM; in [15] it was 0.009 µM; in test [16] it was 0.89 µM; in test [17], 0.009 µM; in test [18], 0.008 µM. Also, the values for the IC50 in test [19], in [20] and in test [21] were 0.006 µM, 0.06 µM and 0.02 µM, respectively. The “proliferation inhibition activity / inhibition ratio” value in test [22] worked out at 100%.
For the compound `CON=C1c2ccccc2C(=O)c2c1[n+](C)cn2C.[I-]` [Compound 123, (E) and (Z)-4-(methoxylimino)-1,3-dimethyl-9-oxo-4,9-dihydro-1H-naphthol[2,3-d]imidazole-3-iodide], the IC50 in test [1] was found to be 0.007 µM; in test [2] it was 23 µM; in [3] it was 1.8 µM; in [4] it was 3.8 µM; in test [5], 0.22 µM; in [6], 0.43 µM. In addition, the IC50 in test [7] came to 0.01 µM; in [8], 6.7 µM; in test [9], 0.12 µM; in test [10], 13.5 µM; in test [11] it was 0.09 µM; in test [12] it was 4.65 µM. In addition, the IC50 in [13] was determined as 90.9 µM; in [14], 0.07 µM; in test [15], 0.007 µM; in [16] it was 0.76 µM; in [17] it was 0.008 µM; in [18], 0.007 µM. Besides, the IC50 in test [19] was found to be 0.004 µM; in test [20], 0.05 µM; in test [21], 0.01 µM. Moreover, in test [22], the “proliferation inhibition activity / inhibition ratio” value amounted to 100%.
In the case of “(E) and (Z)-4-(butoxyimino)-1,3-dimethyl-9-oxo-4,9-dihydro-1H-naphthol[2,3-d] [Compound 128]”, the IC50 in [1] was 0.004 µM; in test [2], 4.8 µM; in test [3], 2.9 µM; in test [4] it was 6.5 µM; in test [5] it was 0.14 µM; in test [6], 0.17 µM. Also, the IC50 in [7] was 0.02 µM; in test [8], 9.8 µM; in test [9], 0.53 µM; in [10], 8.8 µM; in test [11], 0.08 µM; in test [12], 1.66 µM. Besides, the IC50 in [13] was determined as 78.9 µM; in [14] it was 0.009 µM; in test [15], 0.008 µM; in test [16], 0.1 µM; in test [17] it was 0.009 µM; in [18] it was 0.008 µM. The IC50 in test [19] turned out to be 0.006 µM; in [20], 0.01 µM; in test [21] it was 0.009 µM. Moreover, the “proliferation inhibition activity / inhibition ratio” value in test [22] is given as 100%.
As for `Cn1c[n+](C)c2c1C(=O)c1cc3ccccc3cc1C2=NOCc1ccc([N+](=O)[O-])cc1` [Compound 151, (E) and (Z)-1,3-dimethyl-4-(((4-nitrobenzyl)oxy)imino)-11-oxo-4,11-dihydro-1H-anthracene[2,3-d]imidazole-3-iodide], the IC50 came to 0.12 µM in test [1], 56.8 µM in test [2], 78.8 µM in [3] and 89.6 µM in test [4].
In the case of `C[n+]1cn(C2CC2)c2c1/C(=N/O)c1ccccc1C2=O` [Compound 99, (E)-1-cyclopropyl-4-(hydroxylimino)-3-methyl-9-oxo-4,9-dihydro-1H-naphthol[2,3-d]imidazole-3-iodide], the IC50 in test [1] was 1.72 µM; in [2], 5.74 µM; in test [3] it was 1.63 µM; in test [4] it was 19.8 µM.
In the case of `Cc1cc(C)c(-n2c[n+](C)c3c2C(=O)c2ccccc2/C3=N\O)c(C)c1` [Compound 105, (E)-4-(hydroxylimino)-1-sym-trimethyl-3-methyl-9-oxo-4,9-dihydro-1H-naphthol[2,3-d]imidazole-3-iodide], the IC50 is 1.11 µM in test [1], 22.6 µM in [2], 6.12 µM in test [3] and more than 100 µM in test [4].
Regarding `C[n+]1cn(Cc2ccccc2F)c2c1/C(=N/O)c1ccccc1C2=O` [Compound 112, (E)-1-(2-fluorobenzyl)-4-(hydroxylimino)-3-methyl-9-oxo-4,9-dihydro-1H-naphthol[2,3-d]imidazole-3-iodide], the IC50 came to 0.57 µM in test [1], 7.7 µM in test [2], 3.7 µM in [3] and 27.3 µM in [4].
For the compound `COc1ccc(Cn2c[n+](C)c3c2C(=O)c2ccccc2/C3=N\O)cc1` [Compound 115, (E)-4-(hydroxylimino)-1-(4-methoxybenzyl)-3-methyl-9-oxo-4,9-dihydro-1H-naphthol[2,3-d]imidazole-3-iodide], the IC50 stood at 0.13 µM in [1], 2.5 µM in [2], 1.64 µM in test [3] and 17.6 µM in test [4].
For `C[n+]1cn(Cc2ccc(F)cc2)c2c1/C(=N/O)c1ccccc1C2=O` [Compound 108, (E)-1-(4-fluorobenzyl)-4-(hydroxylimino)-3-methyl-9-oxo-4,9-dihydro-1H-naphthol[2,3-d]imidazole-3-iodide] the same measures were 0.5 µM, 2.38 µM, 1.63 µM and more than 100 µM.
`CCCCn1c[n+](C)c2c1C(=O)c1ccccc1C2=NOC` [Compound 119, (E) and (Z)-1-butyl-4-(methoxylimino)-3-methyl-9-oxo-4,9-dihydro-1H-naphthol[2,3-d]imidazole-3-iodide]: the IC50 in test [1] is 0.52 µM; in test [2], 33 µM; in test [3], 18.1 µM; in [4], 4.6 µM.
Take `Cn1c[n+](C)c2c1C(=O)c1cccc([N+](=O)[O-])c1/C2=N\O` [Compound 118, (E)-4-(hydroxylimino)-1,3-dimethyl-5-nitro-9-oxo-4,9-dihydro-1H-naphthol[2,3-d]imidazole-3-iodide]: the IC50 in [1] amounted to 0.54 µM; in test [2] it was 0.78 µM; in test [3] it was 0.89 µM; in [4], 12.9 µM.
